For one test, the target named is BRD3(1,2) (Homo sapiens (Human), UniProt Q15059). The experiment in a line: AlphaScreen binding of compounds on BRD3 (D1+D2). The conditions noted are these: read-out: IC50 against BRD3(1,2). The text has this:
(§1) Homogeneous time-resolved fluorescence technology (HTRF) was used to determine the binding effect of compounds on BRD4 (D1+D2) and BRDT (D1) proteins, as well as AlphaScreen method was used to detect the binding effect of compounds on BRD2 (D1+D2) and BRD3 (D1+D2) proteins.
(§2) The compounds were screened in vitro, and each compound was serially diluted to 10 concentrations. Four proteins BRD4 (D1+D2), BRDT (D1), BRD2 (D1+D2) and BRD3 (D1+D2) were chosen to determine the IC50 values of compounds (see Table 1).
(§3) 4. Compound treatment: The test compound was dissolved in dimethyl sulfoxide (DMSO), and the storage concentration was 10 mM.
(§4) 6. AlphaScreen Detection Procedures:
(§5) 1) Preparing One-Fold Concentration of Detection Buffer
(§6) One-fold concentration of detection buffer was prepared (Improved HEPES buffer)
(§7) 2) Gradient Dilution of Compounds
(§8) Echo automatic sampler was used to transfer the compound to the detection plate for gradient dilution, so that the final concentration of dimethyl sulfoxide was 0.1%.
(§9) 3) Preparation of Protein Solution
(§10) The protein was dissolved in one-fold concentration of detection buffer.
(§11) 4) Preparation of Substrate Solution
(§12) The peptide was dissolved in one-fold concentration of detection buffer to prepare the substrate solution.
(§13) 5) 5 μL protein solution was transferred to the detection plate, and one-fold concentration of detection buffer (5 μL) was placed in the negative control wells.
(§14) 6) The plate was incubated for 15 min at room temperature.
(§15) 7) 5 μL substrate solution was added to each well to start the reaction.
(§16) 8) The plate was incubated for additional 60 min at room temperature.
(§17) 9) Preparation of acceptor solution and donor solution in one-fold concentration of assay buffer Acceptor solution (15 μL) and donor solution (15 μL) were respectively added, and then incubated at room temperature for 60 min and protected against exposure to light.
(§18) 10) The endpoint was read in EnSpire and Alpha mode.
(§19) The experimental data were recorded in an Excel file and equation (1) was used to get the inhibition rate. Inh%=(Max−Signal)/(Max−Min)*100 Equation (1):
(§20) The obtained data were input into GraphPad software, and equation (2) was used to obtain the IC50 value. Y=Bottom+(Top−Bottom)/(1+10^((Log IC50−X)*Hill Slope)) Formula (2): […]
(§21) Wherein, Y axis was the inhibition rate, and the X axis was the compound concentration.
(In general: In Alpha technology, singlet oxygen from a donor bead excites a nearby acceptor bead.)

The target in the next test is BRD4(1,2) (Homo sapiens (Human), UniProt O60885). Description: HTRF binding of compounds on BRD4 (D1+D2). The settings on record: read-out: IC50 against BRD4(1,2).
Text: as §1, §2, §3
(§22) 5. Steps for Homogeneous Time-Resolved Fluorescence Detection:
(§23) 1) According to the arrangement of the detection plate, all compounds were diluted in Echo plate.
(§24) The final dilution concentration of DMSO is 0.1%.
(§25) 2) The compound or DMSO was transferred to a 384-well detection plate with the Echo automatic sampler.
(§26) 3) Two-fold concentration of the mixture of protein and peptide was added to the detection plate.
(§27) 4) Two-fold concentration of mixed detection solution was added to the test plate, and shaken for 30 s.
(§28) 5) Incubating for 2 h at room temperature.
(§29) 6) Fluorescence signal was read on Envision multi-function microplate reader (excitation light wavelength being 340 nm, and emission light wavelength being 615 nm and 665 nm).
(§30) The experimental data were recorded in an Excel file, and equation (1) was used to obtain the inhibition rate. Inh%=(Max−Signal)/(Max−Min)*100 Equation (1):
(§31) The obtained data was recorded in GraphPad software, and equation (2) was used to provide the IC50 values. Y=Bottom+(Top−Bottom)/(1+10^((Log IC50−X)*Hill Slope)) Equation (2): […]
(§32) Y axis was the inhibition rate, and X axis was the compound concentration.
Background: TR-FRET usually uses a lanthanide donor and a delayed reading to cut background.

The target in the next test is BRDT(D1) (Homo sapiens (Human), UniProt Q58F21). The experiment in a line: HTRF binding of compounds on BRDT (D1). The settings on record: read-out: IC50 against BRDT(D1).
Text: as §1, §2, §3, §22, §23, §24, §25, §26, §27, §28, §29, §30, §31, §32

Another test addresses BRD2(1,2) (Homo sapiens (Human), UniProt P25440). Description: AlphaScreen binding of compounds on BRD2 (D1+D2). The conditions noted are these: read-out: IC50 against BRD2(1,2).
Text: as §1, §2, §3, §4, §5, §6, §7, §8, §9, §10, §11, §12, §13, §14, §15, §16, §17, §18, §19, §20, §21

For a further test, the system named is CWR22RV1 cells. The experiment in a line: Inhibition of proliferation of CWR22RV1 cells (CCK-8). The format is cell-based, human. The conditions noted are these: Homo sapiens, CWR22Rv1, 144 h, 6 days. In outline:
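Cells seeded at 1500/well, cultured overnight, then exposed to compounds in 3-fold dilutions (9 concentrations from 10 μM top final, 0.1% DMSO) for 6 days at 37 °C. Viability read by CCK-8 absorbance at 450 nm after 2.5 h; IC50 from dose-response inhibition fit.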

Values joined by “and” are separate entries in the source; they are usually repeats but may differ in a detail not shown here. Equal values may be shown once.

A word on the IC50: it is the point on the concentration scale where inhibition reaches its midpoint.

Chain of BRD2(1,2) (P25440 65-459): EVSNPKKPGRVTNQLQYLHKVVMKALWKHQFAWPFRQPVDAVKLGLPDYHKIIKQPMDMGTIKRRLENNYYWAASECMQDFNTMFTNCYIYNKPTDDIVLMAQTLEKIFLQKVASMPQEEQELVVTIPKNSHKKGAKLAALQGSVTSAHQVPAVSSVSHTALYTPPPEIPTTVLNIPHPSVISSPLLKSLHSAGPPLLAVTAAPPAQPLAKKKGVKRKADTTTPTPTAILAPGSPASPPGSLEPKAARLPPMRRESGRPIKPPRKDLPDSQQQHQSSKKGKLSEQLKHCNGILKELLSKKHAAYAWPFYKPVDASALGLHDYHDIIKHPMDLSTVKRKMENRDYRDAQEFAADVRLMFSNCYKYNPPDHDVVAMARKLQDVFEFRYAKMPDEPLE
Chain of BRD3(1,2) (Q15059 29-417): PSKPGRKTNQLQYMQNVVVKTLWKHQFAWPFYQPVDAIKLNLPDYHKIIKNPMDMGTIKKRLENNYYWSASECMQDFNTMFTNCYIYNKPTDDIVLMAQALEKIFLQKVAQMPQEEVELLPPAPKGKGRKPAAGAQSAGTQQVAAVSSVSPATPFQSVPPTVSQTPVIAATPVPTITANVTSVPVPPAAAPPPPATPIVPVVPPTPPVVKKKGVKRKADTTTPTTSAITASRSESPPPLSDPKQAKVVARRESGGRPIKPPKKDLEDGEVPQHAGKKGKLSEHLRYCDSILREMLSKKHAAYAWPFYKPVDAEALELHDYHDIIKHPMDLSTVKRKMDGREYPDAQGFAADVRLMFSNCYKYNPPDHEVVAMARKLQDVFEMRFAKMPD

Take `[2H]C([2H])([2H])n1cc(-c2cc(S(=O)(=O)NC)cnc2N2CCC3(CC2)CC3(F)F)c2cc[nH]c2c1=O` [Compound 212, 6-(1,1-difluoro-6-aza-spiro[2.5]octan-6-yl)-N-methyl-5-(6-trideuteromethyl-7-oxo-6,7-dihydro-1H-pyrrolo[2,3-c]pyridin-4-yl)pyridin-3-sulfonamide]: the 50% inhibitory concentration (IC50) on BRD3(1,2) stood at 4.6 nM; on BRD4(1,2) it was 4.3 nM; on BRDT(D1) it was 13 nM; at BRD2(1,2), 1.7 nM. For `[2H]C([2H])([2H])NS(=O)(=O)c1cnc(N2CCC3(CC2)CC3(F)F)c(-c2cn(C([2H])([2H])[2H])c(=O)c3[nH]ccc23)c1` [Compound 213, 6-(1,1-difluoro-6-aza-spiro[2.5]octan-6-yl)-N-trideuteromethyl-5-(6-trideuteromethyl-7-oxo-6,7-dihydro-1H-pyrrolo[2,3-c]pyridin-4-yl) pyridin-3-sulfonamide] the same measures were 4.4 nM, 4.1 nM, 15 nM and 1.6 nM. For the molecule `[2H]C([2H])([2H])n1cc(-c2cc(S(=O)(=O)CC)cnc2N2CCC3(CC2)CC3(F)F)c2cc[nH]c2c1=O` [Compound 215, 4-(2-(1,1-difluoro-6-aza-spiro[2.5]octan-6-yl)-5-(ethylsulfonyl)pyridin-3-yl)-6-trideuteromethyl-1H-pyrrolo[2,3-c]pyridin-7(6H)-one], the IC50 at BRD3(1,2) is 5 nM; on BRD4(1,2), 5.3 nM; on BRDT(D1) it was 16 nM; on BRD2(1,2), 2.9 nM. Take `[2H]C([2H])([2H])n1cc(-c2cc(S(N)(=O)=O)c(F)cc2N2CCC3(CC2)CC3(F)F)c2cc[nH]c2c1=O` [Compound 217, 4-(1,1-difluoro-6-aza-spiro[2.5]octan-6-yl)-2-fluoro-5-(6-trideuteromethyl-7-oxo-6,7-dihydro-1H-pyrrolo[2,3-c]pyridin-4-yl)benzenesulfonamide]: the IC50 is 4.9 nM and 4.5 nM on BRD3(1,2); 6.2 nM and 4.9 nM on BRD4(1,2); 20 nM and 19 nM at BRDT(D1); 1.4 nM and 1.5 nM at BRD2(1,2). As for `CC(=O)Nc1ccc(N2CCC3(CC2)COC3)c(-c2cn(C)c(=O)c3[nH]ccc23)c1` [Compound 230], in the test on CWR22RV1 cells, the concentration for half-maximal inhibition (IC50) worked out at 250 nM. Same read-out and setting: the same measure for `[2H]C([2H])([2H])n1cc(-c2cc(S(=O)(=O)CC)ccc2N2CCC3(CC2)CC3)c2cc[nH]c2c1=O` [Compound 232, 4-(5-(ethylsulfonyl)-2-(6-aza-spiro[2.5]octan-6-yl)phenyl)-6-trideuteromethyl-1H-pyrrolo[2,3-c]pyridin-7(6H)-one]: 0.6 nM; for `[2H]C([2H])([2H])n1cc(-c2cc(S(=O)(=O)C(C)C)ccc2N2CCC3(CC2)CC3(F)F)c2cc[nH]c2c1=O` [Compound 233, 4-(2-(1,1-difluoro-6-aza-spiro[2.5]octan-6-yl)-5-(isopropylsulfonyl)phenyl)-6-trideuteromethyl-1H-pyrrolo[2,3-c]pyridin-7(6H)-one]: 1.3 nM. The molecule `[2H]C([2H])([2H])n1cc(-c2cc(S(=O)(=O)C(C)C)ccc2N2CCC3(CC2)CC3)c2cc[nH]c2c1=O` [Compound 234, 4-(5-(isopropylsulfonyl)-2-(6-aza-spiro[2.5]octan-6-yl)phenyl)-6-trideuteromethyl-1H-pyrrolo[2,3-c]pyridin-7(6H)-one] displayed a 50% inhibitory concentration (IC50) in the test with CWR22RV1 cells of 0.9 nM. Still for that read-out and setting: the figure for `[2H]C([2H])([2H])n1cc(-c2cc(S(=O)(=O)CC(=O)O)ccc2N2CCC3(CC2)CC3)c2cc[nH]c2c1=O` [Compound 235, 2-((3-(6-trideuteromethyl-7-oxo-6,7-dihydro-1H-pyrrolo[2,3-c]pyridin-4-yl)-4-(6-aza-spiro[2.5]octan-6-yl)phenyl)sulfonyl)acetic acid] is 1.7 nM. Same read-out and setting: the same measure for `[2H]C([2H])([2H])n1cc(-c2cc(S(N)(=O)=O)c(F)cc2N2CCC3(CC2)CC3)c2cc[nH]c2c1=O` [Compound 236, 2-fluoro-5-(6-trideuteromethyl-7-oxo-6,7-dihydro-1H-pyrrolo [2,3-c]pyridin-4-yl)-4-(6-aza-spiro[2.5]octan-6-yl)benzenesulfonamide]: 3.2 nM; for `[2H]C([2H])([2H])n1cc(-c2cc(S(C)(=O)=O)c(N3CCC4(CC3)CC4)cc2F)c2cc[nH]c2c1=O` [Compound 237, 4-(2-fluoro-5-(methanesulfonyl)-4-(6-aza-spiro[2.5]octan-6-yl)phenyl)-6-trideuteromethyl-1H-pyrrolo[2,3-c]pyridin-7(6H)-one]: 4.2 nM; for `[2H]C([2H])([2H])n1cc(-c2cc(S(C)(=O)=O)c(F)cc2N2CCC3(CC2)CC3)c2cc[nH]c2c1=O` [Compound 238, 4-(4-fluoro-5-(methanesulfonyl)-2-(6-aza-spiro[2.5]octan-6-yl)phenyl)-6-trideuteromethyl-1H-pyrrolo[2,3-c]pyridin-7(6H)-one]: 8 nM. The same measure, in the same setting: the same measure for `[2H]C([2H])([2H])n1cc(-c2cc(S(=O)(=O)N3CCCC3C(=O)O)ccc2N2CCC3(CC2)CC3(F)F)c2cc[nH]c2c1=O` (stereo not shown) [Compound 244, 1-((4-(1,1-difluoro-6-aza-spiro[2.5]octan-6-yl)-3-(6-trideuteromethyl-7-oxo-6,7-dihydro-1H-pyrrolo[2,3-c]pyridin-4-yl)phenyl)sulfonyl)pyrrolidin-2-carboxylic acid]: 81 nM. Regarding `Cn1cc(-c2cc(N)ccc2N2CCC3(CC2)CC3)c2cc[nH]c2c1=O` [Compound 245, 4-(5-amino-2-(6-aza-spiro[2.5]octan-6-yl)phenyl)-6-methyl-1H-pyrrolo[2,3-c]pyridin-7(6H)-one], the IC50 with CWR22RV1 cells stood at 230 nM. The same measure, in the same setting: the figure for `Cn1cc(-c2cc(NS(C)(=O)=O)ccc2N2CCC3(CC3)C2)c2cc[nH]c2c1=O` [Compound 246, N-(3-(6-methyl-7-oxo-6,7-dihydro-1H-pyrrolo[2,3-c]pyridin-4-yl)-4-(5-aza-spiro[2.4]heptan-5-yl)phenyl)methanesulfonamide] is 30 nM.

In turn, `Cn1cc(-c2cc(NC(=O)CCC(=O)O)ccc2N2CCC3(CC2)CC3)c2cc[nH]c2c1=O` [Compound 247, 4-((3-(6-methyl-7-oxo-6,7-dihydro-1H-pyrrolo[2,3-c]pyridin-4-yl)-4-(6-aza-spiro[2.5]octan-6-yl)phenyl)amino)-4-oxobutyric acid] had an IC50 in the test on CWR22RV1 cells of 670 nM. The same measure, in the same setting: the figure for `Cn1cc(-c2cc(S(C)(=O)=O)ccc2N2CCCC2C(=O)O)c2cc[nH]c2c1=O` (stereo not shown) [Compound 248, 1-(2-(6-methyl-7-oxo-6,7-dihydro-1H-pyrrolo[2,3-c]pyridin-4-yl)-4-(methanesulfonyl)phenyl)pyrrolidin-2-carboxylic acid] is 7000 nM; for `Cn1cc(-c2cc(S(C)(=O)=O)ccc2N2CCCC2CCl)c2cc[nH]c2c1=O` (stereo not shown) [Compound 249, 4-(2-(2-(chloromethyl)pyrrolidin-1-yl)-5-(methanesulfonyl)phenyl)-6-methyl-1H-pyrrolo[2,3-c]pyridin-7(6H)-one] it is 130 nM.

With `[2H]C([2H])([2H])n1cc(-c2cc(S(N)(=O)=O)ccc2N2CCC3(CC2)CC3(F)F)c2cc[nH]c2c1=O` [Compound 251, 4-(1,1-difluoro-6-aza-spiro[2.5]octan-6-yl)-3-(6-trideuteromethyl-7-oxo-6,7-dihydro-1H-pyrrolo[2,3-c]pyridin-4-yl)benzenesulfonamide], the IC50 is 3.9 nM on BRD3(1,2), 3.4 nM on BRD4(1,2), 13 nM on BRDT(D1) and 1.2 nM at BRD2(1,2).
